Measured values reported in article PMC6273429, “Pharmacokinetics of Tyrosol Metabolites in Rats” (Molecules, 2016).
Where two headings read alike, the source gives them in different places.

Experiments:
[1] = Pharmacokinetics of tyrosol metabolites in rat plasma after single oral dose of tyrosol (HPLC); type: in vivo, Sprague-Dawley rats; conditions: for Cmax / Tmax / half-life / AUC(0-t): male, Sprague-Dawley; for AUC(0-t): n = 3, read-out: AUC (0-8h)
Procedure: To understand the time-dependent changes in the concentration of tyrosol metabolites, the level of metabolites in plasma samples was measured by HPLC at different time points (15, 30, 60, 120, and 240 min) after tyrosol administration. […] The inter- and intra-day precision and accuracy were determined by replicate analysis of the samples at two concentrations of each metabolite: 0.1 and 2 mg/mL tyrosol-4-sulfate. The stability of the metabolites was determined at room temperature over 24 h.
(§1) Male Sprague-Dawley rats with average weights of 250 g were purchased from Orient Bio Inc. (Seoul, Korea) and acclimatized to laboratory conditions comprising a 12:12 h light-dark cycle, temperature of 24 °C, and humidity of 55% for one week. Animals were fed AIN-93G diet and provided water ad libitum during acclimation. On the dosing day, the rats were gavaged with tyrosol (100 or 200 mg/kg) as a suspension in polyethylene glycol. After the oral administration of a single dose of tyrosol to rats, blood samples were collected from the eye of the rats at different time points after dosing (0.25, 0.5, 1, 2, 4, 8, and 16 h). Urine samples were collected just before administration of tyrosol and during 0–1, 1–2, 2–4, 4–8, and 8–24 h after dosing. Liver, lung, heart, spleen, kidney, and epididymal adipose tissues were excised as quickly as possible and stored frozen at −80 °C until use. Animal studies were conducted in accordance with our institutional and national guidelines, and all experimental procedures were approved by the Korea Food Research Institute Animal Care and Use Committee (KFRI-IACUC, #2015-0016).
To 300 µL of serum, 700 µL of methanol was added, followed by vortex mixing for 5 min. After centrifugation at 13,000 rpm for 15 min, the supernatant was collected and injected into the HPLC or LC-MS system.
(§2) HPLC analyses were performed on a Jasco high-performance liquid chromatography (HPLC) system (Jasco Corporation, Tokyo, Japan) equipped with a Jasco UV-2089 plus quaternary gradient pump, Jasco AS-2057 plus intelligent sample injector, Jasco UV-2075 UV/Vis detector, and Borwin chromatography software version 1.5. Separation was achieved using an XTerra RP18 column (4.6 × 250 mm, 5 µM, Waters) and a guard column. Elution was performed at a flow rate of 1.0 mL/min at 30 °C. The solvents for eluent were 1% (v/v) phosphoric acid (solvent A) and acetonitrile (solvent B). The solvent gradient changed according to the following conditions: 100% A to 95% A over 10 min, to 85% A over 10 min, to 70% A over 10 min, to 65% A over 5 min, to 90% A over 5 min, and to 100% A over 5 min, followed by 5 min of maintenance. The UV detector was set at a wavelength of 280 nm.
(§3) A non-compartmental pharmacokinetics analysis for each tyrosol metabolite was performed using PK solution software version 2.0 (Summit Research Services, Montrose, CO, USA). Cmax, Tmax, and T1/2 were estimated from the plasma concentration-time curve. The area under the curve (AUC) for the plasma concentration over time was calculated using the trapezoidal rule.

[2] = Pharmacokinetics of tyrosol metabolites in rat urine after single oral dose of tyrosol (HPLC); type: in vivo, Sprague-Dawley rats; conditions: for Tmax / half-life: male, Sprague-Dawley; for Tmax: rat, urine, po
Procedure: Urine samples were collected at 0–1, 1–2, 2–4, 4–8, and 8–24 h after administration of tyrosol.
as §1, §2, §3

[3] = Tissue distribution of tyrosol-derived metabolites after oral administration of tyrosol; type: in vivo, Sprague-Dawley rats
Procedure: To study the tissue distribution of tyrosol metabolites, organs were collected at different time points following oral administration of tyrosol. T4S and M2 were detected in each tissue within 1 h after tyrosol administration (Figure 5A,B). […] These findings indicate that the metabolites are mainly excreted by the kidneys through the liver. Specifically, we propose that the rapid uptake of tyrosol is followed by its sulfation in the liver.
Figure 5 Tissue distribution of tyrosol-4-sulfate (A) and M2 (B). Tissue samples (heart, kidney, spleen, lung, liver, epididymal adipose tissue) were collected at different time intervals post-dosing (0, 0.5, 1, 2, 4, 8, and 16 h) and the concentration of tyrosol-4-sulfate and M2 was measured. Each point represents mean ± SD (n = 3).
as §1
Each tissue was thawed, rinsed with ice-cold saline, blotted dry, weighed, and homogenized (1:1, w/v) in water using homogenizer (MP Fastprep instrument, MP Biomedical, Solon, OH, USA). The homogenates (300 µL) were transferred into clean tubes, methanol (700 µL) was added, and the tubes were vortex-mixed for 5 min. The supernatant was collected after centrifugation at 13,000 rpm for 15 min. The supernatant was evaporated to dryness at room temperature under a stream of nitrogen gas. The residue was resuspended in methanol (100 µL).
as §2

[4] = test system: human hepatoma HepG2 cells; design: method as in PMID 16366672; conditions: cited from earlier work

O=S(=O)(O)Oc1ccc(CCO)cc1 [T4S, tyrosol-4-sulfate]
time of uptake after oral administration of tyrosol [1]: ≤ 1 h | Cmax ([1]; tyrosol oral 100 mg/kg b.w.): 7900 ng/mL | Tmax ([1]; tyrosol oral 100 mg/kg b.w.): 0.178 h | half-life ([1]; tyrosol oral 100 mg/kg b.w.): 0.23 h | AUC(0-t) ([1]; tyrosol oral 100 mg/kg b.w.): 2500 ng·h/mL | Cmax ([1]; tyrosol oral 200 mg/kg b.w.): 12100 ng/mL | Tmax ([1]; tyrosol oral 200 mg/kg b.w.): 0.177 h | half-life ([1]; tyrosol oral 200 mg/kg b.w.): 0.202 h | AUC(0-t) ([1]; tyrosol oral 200 mg/kg b.w.): 6600 ng·h/mL | time by which eliminated in urine ([2]; after oral tyrosol): ≤ 12 h | Tmax ([2]; 100 mg/kg, tyrosol oral 100 mg/kg b.w., read-out: Tmax): 2 h | Tmax ([2]; 200 mg/kg, tyrosol oral 200 mg/kg b.w., read-out: Tmax): 2.9 h | Tmax ([2]; 200 mg/kg, tyrosol oral 100 and 200 mg/kg, read-out: Tmax in urine (range over doses)): 2 to 2.9 h | half-life ([2]; tyrosol oral 100 mg/kg b.w.): 1.2 h | half-life ([2]; tyrosol oral 200 mg/kg b.w.): 1.2 h | time to detection in each tissue ([3]; rat tissues after oral tyrosol): ≤ 1 h | detection in epididymal fat and the lungs ([3]; rat, after oral tyrosol): not detected | time of elimination from organs and tissues ([3]; rat, after oral tyrosol): ≤ 4 h | tissues of greatest deposition / highest concentration by tissue weight ([3]; rat, after oral tyrosol): liver, followed by the kidney and spleen | tissues of greatest deposition / highest concentration by tissue weight ([3]; rat, after oral tyrosol, listed as tyrosol-4-sulfate): liver and the kidney

OCCc1ccc(O)cc1 [Tyrosol]
detection of sulfated metabolites [4]: no detection | metabolism to glucuronide conjugates [4]: poorly metabolized
